{
  "source": "patent US10145848B2",
  "about": "“Small-molecule hydrophobic tagging of fusion proteins and induced degradation of same” (YALE UNIVERSITY, priority 2010, dated 2018)",
  "key": {"[1]": {"biological_target": "T1, HA-HaloTag(D106A)-H-RasG12V (UniProt P01112+P0A3G2, C176G/D106A/G12V/H272F/K175M/Y273L)", "T1 construct": "The HaloTag protein was obtained from pHT2 vector (Promega); H-Ras carrying G12V (fusion partner, same polypeptide); expressed in transfected cells; host or cells: NIH-3T3, retroviral infection (pEYK3.1)", "T1 sequence (P0A3G2+P01112 fused with the stated changes)": "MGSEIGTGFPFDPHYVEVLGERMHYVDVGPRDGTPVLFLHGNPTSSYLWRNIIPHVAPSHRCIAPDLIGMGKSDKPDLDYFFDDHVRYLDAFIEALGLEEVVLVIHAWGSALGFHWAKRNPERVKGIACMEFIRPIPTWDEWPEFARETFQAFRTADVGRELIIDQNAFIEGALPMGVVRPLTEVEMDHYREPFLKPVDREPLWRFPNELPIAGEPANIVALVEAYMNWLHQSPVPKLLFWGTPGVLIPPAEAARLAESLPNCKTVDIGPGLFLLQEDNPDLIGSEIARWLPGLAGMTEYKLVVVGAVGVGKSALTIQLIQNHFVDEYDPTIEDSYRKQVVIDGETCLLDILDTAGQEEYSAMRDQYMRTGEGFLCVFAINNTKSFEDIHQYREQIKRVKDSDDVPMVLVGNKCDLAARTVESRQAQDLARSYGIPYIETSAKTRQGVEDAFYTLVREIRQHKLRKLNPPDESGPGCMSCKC", "assay": "Immunoblotting of HA-HaloTag(D106A)-H-RasG12V in NIH-3T3 cells", "format": "cell-based", "settings": "1 μM, 24 hours", "procedure": "(a) NIH-3T3 cells were retrovirally infected with a construct expressing either HA-HaloTag-HRas(G12V) or HA-HaloTag(D106A)-HRas(G12V). The cells were then treated with vehicle or 1 μM HyT13 for 24 hours. The lysates were prepared for immunoblotting and the blots were probed with anti-HA and anti-β-actin antibodies. (b) One hundred thousand NIH-3T3 cells infected with HA-HaloTag-HRas(G12V) or HA-HaloTag(D106A)-HRas(G12V) were plated in 10% FBS containing medium onto 10-cm plates. The next day, the medium was replaced with 1% FBS containing medium, along with vehicle or 1 μM HyT13. The media was refreshed every 2 days, and the plates were pictured on day 6. Bar, 5 mm. (c) Quantification of foci as described in (b). The number of foci/cm^2 was counted from three separate plates, with error bars representing SEM. […] Tumor size was measured daily, and the tumor volume was calculated. […]\nThe indicated cells were washed twice with cold PBS and the cells were lysed in lysis buffer (1×PBS, 1% NP-40, 1 mM EDTA, 40 mM HEPES) with protease inhibitors. […] The total protein concentration was determined by Bradford assay and 50 μg of protein was loaded onto an 8% Bis-Tris gel. […] The blots were processed by standard procedures with indicated antibodies, and the band intensities were quantified by ImageJ. […]"}, "[2]": {"tested_on": "NIH-3T3 cells expressing HA-HaloTag-H-RasG12V", "assay": "Tumor formation assay in nude mice", "format": "in vivo", "settings": "25 mg/kg or 100 mg/kg daily IP", "procedure": "One hundred thousand NIH-3T3 cells expressing HA-HaloTag-H-RasG12V were injected into the flank of anesthetized 6-week old female nu/nu nude mice (Charles River Laboratories). Two hours later, the mice were IP injected with either vehicle (10 μl, volume, with 5 μl, DMSO and 5 μl, of Cremophor EL), 25 mg/kg HyT13 or 100 mg/kg HyT13. The drug injections continued daily until the end of the experiment. Upon the appearance of tumors on day 7, the tumors were measured daily with calipers, and their volumes were calculated using the formula: a(b)^2/2, where a and b represent the longest and shortest diameters of the tumor, respectively.\n(§1) To examine whether the HaloTag:HyT13 based system could be used in mouse models to relieve the H-RasG12V-driven tumor burden, we first evaluated the pharmacokinetics of HyT13. We performed a maximum tolerated dose experiment with HyT13 in nude mice at doses up to 100 mg/kg over a 14-day treatment regimen. […] Next, we sought to determine the serum bioavailability of HyT13 following injections. HyT13 was administered at 25 mg/kg by intraperitoneal (IP) injection into Swiss Webster mice and the serum was collected at 1 and 24 hours post-injection. At 1 hour post HyT13 administration the blood serum concentration was approximately 2 μM, and by 24 hours the HyT13 concentration had dropped to about 500 nM (FIG. 10). […]"}, "[3]": {"assay": "Serum HyT13 determination (bio-reporter assay)", "format": "in vivo", "settings": "mouse, intraperitoneal, 25 mg/kg IP, Swiss Webster mice, read-out: blood serum concentration", "procedure": "Webster Swiss mice received IP injections of 25 mg/kg of HyT13. The injection volume was 10 μL, consisting of 5 μL, of Cremophor EL excipient and 5 μL, of HyT13 in DMSO. Blood was collected from the carotid artery 1 and 24 hours after the injection. The blood was allowed to coagulate for 10 minutes, centrifuged at 10,000 g for 5 minutes and the serum was pipetted into a new tube. Ten microliters of the serum were used for a bio-reporter assay, consisting of the ability to degrade luciferase activity in HEK 293T luciferase-HaloTag cells. The serum concentration of HyT13 was based on a concentration curve of HyT13 performed alongside the bio-reporter assay. […] Each treatment group consisted of three mice. Shown is the mean serum HyT13 level±SEM.\nas §1, with “post-injection.” for “post-injection. At 1 hour post HyT13 administration the blood serum concentration was approximately 2 μM, and by 24 hours the HyT13 concentration had dropped to about 500 nM (FIG. 10).”"}},
  "data": [
    {"molecule": "O=C(CC12CC3CC(CC(C3)C1)C2)NCCOCCOCCCCCCCl", "note": "[HyT13, 2-((3r,5r,7r)-Adamantan-1-yl)-N-(2-(2-((6-chlorohexyl)oxy)ethoxy)ethyl)acetamide]", "values": [
      {"measurement": "degradation of HA-HaloTag(D106A)-H-RasG12V", "setting": "[1]", "value": "unaffected"},
      {"measurement": "tumor size relative to vehicle treated mice (times smaller)", "setting": "[2]", "value": 6, "unit": "times"},
      {"measurement": "concentration at 1 h", "setting": "[3]; 1 hour post administration", "value": "~2000", "unit": "nM"},
      {"measurement": "concentration at 24 h", "setting": "[3]; 24 hours", "value": "~500", "unit": "nM"}
    ]}
  ]
}
